This note sets out measurements from patent US11407811B2, “Fusion protein, preparation method therefor and use thereof” (JIANGSU RONGTAI BIOTECH CO., LTD., priority 2017, dated 2022).

For experiment [1], the system named is angiogenesis of chicken embryo chorioallantoic membrane. The experiment is described as follows: Chicken embryo chorioallantoic membrane (CAM) angiogenesis assay. Conditions: 10 μg (positive control), CAM, 72 hours. It is filed as in vivo. An excerpt: In this study, CAM assay was used to investigate the activity of fusion protein I, protein II, protein III, protein IV, and protein V to inhibit angiogenesis in vivo. The study has shown that the biosynthesis rate of collagen reached the maximum on the 8th to 11th day of chicken embryo development, which was the most vigorous stage of angiogenesis, and the body's immune system had not yet been fully established at that time, and thus the chicken embryos developed to the 8th day was selected to be administered. […] The following steps were used.
(1) The White Leghorn chicken embryos on day 6 were cultured in a 37° C. incubator at 60%-70% humidity for two days.
(2) A 1.0 cm×1.0 cm window was drilled above the chicken embryo air sac, and the inner membrane was torn off with forceps to expose the chorioallantoic membrane. Lens paper having a diameter of 5 mm was used as a loading carrier, and was placed on the chorioallantoic membrane of the chicken embryo air sac. Filter paper with PBS was used as a blank group, and the administration group was added with different doses of fusion protein.
(3) The chicken embryo air sac was sealed with a sterile transparent tape, and after culturing at 37° C. for 72 hours, the chicken embryo air sac was opened, and a fixative (formaldehyde:acetone=1:1) was added for fixation for 15 minutes. The chorioallantoic membrane to which the lens paper was adhered was taken out, the distribution of the new blood vessels was observed, and the new blood vessels were counted and photographed. Five replicates were set for each dose and the results were statistically analyzed.

The test system of experiment [2] is mouse spleen lymphocytes. The experiment is described as follows: Proliferation of mouse spleen lymphocytes (ConA, MTT). The class given is cell-based. The settings on record: dose 20 μg/mL. Here is the method: Tris-NH4Cl was used to break the red blood cells, which were allowed to stand in an ice water bath for 4 min and centrifuged (1000 rpm, 5 min), the supernatant was discarded, and the cells were washed twice with sterile PBS.
The cells were statically cultured in a cell incubator at 37° C. for 48 h. After the completion of the culture, 20 μL of MTT was added to each well, and the culture was continued for 4 h. Finally, all the solutions in each well were discarded, 100 μL of DMSO was added to each well, and the mixture was shaken and detected by a microplate reader for OD value at 570 nm. 5 parallels were preformed for per well.

Experiment [3] concerns toe swelling in rat induced by carrageenan. The experiment is described as follows: Acute inflammation of toe swelling in rat induced by carrageenan. It is filed as in vivo. Conditions: 10 mg/kg (positive control), rat foot. The method, then: 80 SD rats were randomly divided into 8 groups with 10 mice for each group. […] The drug was administered once by injection, and the model group was given an equal volume of physiological saline and fed normally. On the third day, 0.1 mL of 1% carrageenan was injected subcutaneously into the right hind toes of the rats to induce inflammation. The foot volume was measured at 1 h, 3 h, 5 h, and 7 h after inflammation. The swelling degree of the foot was calculated according to the following formula: the swelling degree of the foot (mL)=the volume of the foot after inflammation—the volume before inflammation. The number of milliliters of spilled liquid was recorded (method: the protruding point of the right joint was circled with a ballpoint pen and used as a measurement mark, and the right hind feet of the rat were sequentially placed in the volume measuring device, so that the hind limbs were exposed outside the cylinder, and the depth of the immersion was limited to the overlap of the circle and the liquid level. After the foot entered the liquid, the liquid level was raised, and the volume of the spilled liquid was the volume of the right hind foot of the rat, and the normal volume of the right hind foot of each rat is sequentially determined).

For experiment [4], the system named is peritoneal capillary permeability in mice. Put plainly: Peritoneal capillary permeability in mice (HAc, Evans blue). The class given is in vivo. The settings on record: mice, dose 10 mg/kg. The method, then:
The drug was administered once by injection (EDSM needed to be administered twice a day), and the blank model group was given an equal volume of physiological saline and fed normally. On the 5th day, a 5 g/L Evans blue physiological saline solution was injected into the tail vein at […], followed by intraperitoneal injection ([…]) of a HAc solution (6 mL/L) to induce inflammation. After 20 min, the mice were sacrificed by cervical dislocation. 5 mL of physiological saline was intraperitoneally injected, the abdomen was gently rubbed for 2 min, the abdominal cavity was cut, a peritoneal washing solution was collected and centrifuged at 4000 rpm for 10 min, 1 mL of supernatant was taken, and 3 mL of physiological saline was added to obtain 4 mL of dilution. The absorbance OD value of the dilution was measured by an ultraviolet spectrophotometer at a wavelength of 590 nm, and the amount of pigment exudation was expressed by the OD590 nm value, and the peritoneal capillary permeability in mice was examined.

Experiment [5] relates to IL-1β production by mouse peritoneal macrophages. The experiment is described as follows: IL-1β production by mouse peritoneal macrophages (ELISA). It is filed as cell-based. Conditions: dose 20 μg/mL. Here is the method: (1) IL-1β production: mice were intraperitoneally injected with 1 mL of broth medium containing 6% starch, and three days later, the mouse peritoneal macrophages were aseptically taken, washed twice with a 1640 medium, and the cell concentration was adjusted to 2×10^6 cells/mL, inoculated into a 24-well culture plate at 1 mL/well, incubated for 3 h in a cell incubator, and shaken once every 30 min, so that the cells were allowed to adhere sufficiently. Then, the cells were washed twice with a culture liquid to remove un-adhered cells. […] The supernatant was taken as a sample for testing activity of IL-1β.
(2) Determination of IL-1β content: the detection was performed by using mouse IL-1β enzyme-linked immunosorbent assay kit from R&D company. According to the instructions of the kit, the procedures were as follows: the reaction well for the test samples and different concentrations of standards were sealed with sealing tapes, respectively, incubation was performed at 37° C. for 90 min; the plate was washed four times; a biotinylated antibody working solution (100 μL/well) was added, the reaction well was sealed with sealing tapes, and incubation was performed at 37° C. for 60 min; the plate was washed four times; an enzyme conjugate working solution (100 μL/well) was added, the reaction well was sealed with sealing tapes, incubation was performed at 37° C. for 30 min; the plate was washed four times; a developer (100 μL/well) was added, incubation was performed at 37° C. for 10 to 20 min, a stop solution (100 μL/well) was added and mixed and the OD450 value was measured.
For orientation: An ELISA detects its analyte on a solid surface through an enzyme-linked reagent.

For the compound “Avastin: positive control group in HRCEC and CAM assays [reference compound]”, in experiment [1], the Blood vessel number was determined as 57 ± 16.

Take `C[C@@H]1C[C@H]2[C@@H]3CCC4=CC(=O)C=C[C@]4(C)[C@@]3(F)[C@@H](O)C[C@]2(C)[C@@]1(O)C(=O)CO` [Dex, dexamethasone, reference compound]: in experiment [2], the “A570 nm/A630 nm” value amounted to 0.3401 ± 0.1131 and the “PI (%)” value came out at 41.19%. In addition, the “Swelling degree 1 h” value in experiment [3] (1 h after carrageenan) was determined as 0.21 ± 0.11 mL. Also, the “Swelling degree 3 h” value in experiment [3] (3 h after carrageenan) stood at 0.23 ± 0.04 mL. The “Swelling degree 5 h” value in experiment [3] (5 h after carrageenan) came to 0.25 ± 0.09 mL. Besides, the “Swelling degree 7 h” value in experiment [3] (7 h after carrageenan) was found to be 0.27 ± 0.12 mL. Moreover, the “Exudation rate (OD590)” value in experiment [4] amounted to 0.22 ± 0.03. Besides, in experiment [5], the “IL-1β” value is reported as 310.25 ± 20.32 pg/mL and the “PI (%)” value is 63.36%.
